Source: US7482379B2, “Propenoyl hydrazides” (priority 2004, dated 2009)
Peptide text beside a SMILES is read from it. * marks the point of attachment. AFC = O=c1cc(C(F)(F)F)c2ccc(N*)cc2o1; Cbz = O=C(OCc1ccccc1)*

Columns and labels:
Caspase-10 = target: T1, Caspase-10 (Homo sapiens, UniProt Q92851); experiment: Caspase-10 progress curve inhibition assay; details: for k2 Caspase-10: second-order rate constant, Ac-DEVD-AMC substrate, Hepes/PEG buffer pH 7.0
T1 sequence (Q92851 220-415 limits assumed): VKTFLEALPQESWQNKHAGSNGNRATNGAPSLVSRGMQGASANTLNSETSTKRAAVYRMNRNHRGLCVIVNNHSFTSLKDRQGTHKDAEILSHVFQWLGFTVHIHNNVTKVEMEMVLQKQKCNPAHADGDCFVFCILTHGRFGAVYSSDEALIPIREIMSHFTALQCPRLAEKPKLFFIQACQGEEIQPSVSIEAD
T1 sequence (Q92851 416-521 limits assumed): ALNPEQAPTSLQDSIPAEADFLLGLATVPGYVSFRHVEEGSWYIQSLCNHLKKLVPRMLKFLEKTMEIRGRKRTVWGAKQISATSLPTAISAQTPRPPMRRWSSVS

Caspase-7 = target: T2, Caspase-7 (Homo sapiens, UniProt P55210); experiment: Caspase-7 progress curve inhibition assay; details: for k2 Caspase-7: second-order rate constant, Ac-DEVD-AMC substrate, Pipes buffer pH 7.2
T2 sequence (P55210 24-198 limits assumed): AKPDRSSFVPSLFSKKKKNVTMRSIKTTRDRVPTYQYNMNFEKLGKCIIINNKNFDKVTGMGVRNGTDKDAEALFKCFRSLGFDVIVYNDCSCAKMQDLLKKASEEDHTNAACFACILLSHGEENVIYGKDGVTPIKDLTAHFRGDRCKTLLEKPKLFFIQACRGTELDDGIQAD
T2 sequence (P55210 207-303 limits assumed): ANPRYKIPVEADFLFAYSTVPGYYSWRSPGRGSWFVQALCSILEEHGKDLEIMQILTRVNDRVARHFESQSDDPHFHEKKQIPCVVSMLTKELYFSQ

Caspase-3 = target: T3, Caspase-3 (Homo sapiens, UniProt P42574); experiment: Caspase-3 progress curve inhibition assay; details: for k2 Caspase-3: second-order rate constant, Ac-DEVD-AMC substrate, Pipes buffer pH 7.2
T3 sequence (P42574 29-175 limits assumed): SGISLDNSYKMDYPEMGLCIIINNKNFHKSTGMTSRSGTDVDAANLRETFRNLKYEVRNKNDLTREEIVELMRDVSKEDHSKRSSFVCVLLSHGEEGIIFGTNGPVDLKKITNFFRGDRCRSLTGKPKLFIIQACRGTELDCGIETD
T3 sequence (P42574 176-277 limits assumed): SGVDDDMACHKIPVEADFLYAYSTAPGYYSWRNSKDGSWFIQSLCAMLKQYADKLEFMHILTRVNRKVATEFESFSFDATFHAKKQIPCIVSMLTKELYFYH

Caspase-8 = Caspase-8 (Homo sapiens, UniProt Q14790); experiment: Caspase-8 progress curve inhibition assay; details: for k2 Caspase-8: second-order rate constant, Ac-DEVD-AMC substrate, Pipes buffer pH 7.2
Sequence of Caspase-8 (Q14790 217-374 limits assumed): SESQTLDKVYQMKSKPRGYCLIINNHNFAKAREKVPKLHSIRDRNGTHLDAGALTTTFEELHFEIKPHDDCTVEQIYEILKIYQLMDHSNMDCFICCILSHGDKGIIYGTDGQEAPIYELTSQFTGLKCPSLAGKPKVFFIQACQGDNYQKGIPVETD
Sequence of Caspase-8 (Q14790 385-479 limits assumed): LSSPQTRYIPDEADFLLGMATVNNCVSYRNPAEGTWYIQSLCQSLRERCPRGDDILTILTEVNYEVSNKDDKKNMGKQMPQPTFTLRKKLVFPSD

Caspase-6 = target: T4, Caspase-6 (Homo sapiens, UniProt P55212); experiment: Caspase-6 progress curve inhibition assay; details: for k2 Caspase-6: second-order rate constant, Ac-DEVD-AMC substrate, Pipes buffer pH 7.2
T4 sequence (P55212 24-179 limits assumed): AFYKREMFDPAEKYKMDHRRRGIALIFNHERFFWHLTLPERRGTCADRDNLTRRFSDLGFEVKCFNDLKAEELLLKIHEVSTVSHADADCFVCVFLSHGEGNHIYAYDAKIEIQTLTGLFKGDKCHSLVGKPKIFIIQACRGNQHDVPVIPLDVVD
T4 sequence (P55212 194-293 limits assumed): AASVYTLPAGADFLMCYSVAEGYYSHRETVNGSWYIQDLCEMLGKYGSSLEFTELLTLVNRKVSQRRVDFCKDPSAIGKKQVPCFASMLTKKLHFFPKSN

Caspase-2 = target: T5, Caspase-2 (Homo sapiens, UniProt P42575); experiment: Caspase-2 progress curve inhibition assay; details: for k2 Caspase-2: second-order rate constant, Cbz-VDVAD-AFC substrate, Pipes buffer pH 7.2
T5 sequence (P42575 170-333 limits assumed): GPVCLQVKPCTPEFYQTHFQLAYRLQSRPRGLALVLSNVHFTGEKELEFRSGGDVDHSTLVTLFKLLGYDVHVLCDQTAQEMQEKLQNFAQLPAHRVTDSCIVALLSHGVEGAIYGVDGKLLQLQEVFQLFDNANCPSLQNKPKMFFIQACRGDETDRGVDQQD
T5 sequence (P42575 348-452 limits assumed): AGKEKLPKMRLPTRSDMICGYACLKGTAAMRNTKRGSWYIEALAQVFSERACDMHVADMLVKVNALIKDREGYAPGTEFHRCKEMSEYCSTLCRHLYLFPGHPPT

S. mansoni legumain = S. mansoni legumain (Schistosoma mansoni, UniProt P09841, N192C); experiment: S. mansoni legumain (SmAE) inhibition assay; assay type: biochemical
Sequence of S. mansoni legumain (P09841 32-291 N192C): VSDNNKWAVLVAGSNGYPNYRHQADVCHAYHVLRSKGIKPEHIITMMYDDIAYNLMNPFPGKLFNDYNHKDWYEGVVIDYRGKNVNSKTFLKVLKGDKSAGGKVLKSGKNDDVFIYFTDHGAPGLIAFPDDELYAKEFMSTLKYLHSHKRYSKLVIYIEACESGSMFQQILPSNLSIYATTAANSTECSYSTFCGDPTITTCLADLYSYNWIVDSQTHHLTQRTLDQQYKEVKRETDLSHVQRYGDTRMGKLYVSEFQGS
Experimental: Studies with the propenoyl hydrazides using the schistosome legumain […], (Schistosoma mansoni asparaginyl endopeptidase) were also performed. […] The actual active site enzyme concentration is unknown. The lyophilized enzyme ([…]) was reconstituted in 1.5 mL 0.5 M sodium acetate, pH 4.5 containing 4 mM DTT, and left to stand at 37° C. for 3-4 hours to allow for auto-activation of the zymogen. In a black 96-well microtiter plate, 50 μL of activated enzyme was added to an equal volume of 0.1 M citrate-phosphate buffer pH 6.8 containing 4 mM DTT. Inhibitor stock solutions (20 mM) were prepared in DMSO. Serial dilutions (using water) of inhibitor were added (as 1 μL aliquots) to yield concentrations of between 2 and 0.00002 μM inhibitor. […] After incubating various inhibitor concentrations with enzyme, 100 μL of the same buffer containing 20 μM substrate (Cbz-Ala-Ala-Asn-AMC) was added to the wells and the reaction monitored at room temperature with linear kinetics up to 20 minutes. Inhibitors are tested in duplicate. A plot of the RFU/min versus the inhibitor concentration [μM] permitted calculation of an IC50 value and estimation of the kobs/[I].

k2 Caspase-10 (Caspase-10)	k2 Caspase-7 (Caspase-7)	k2 Caspase-3 (Caspase-3)	k2 Caspase-8 (Caspase-8)	k2 Caspase-6 (Caspase-6)	Compound	k2 Caspase-2 (Caspase-2)	other results
28,300 M^−1s^−1	114,000 M^−1s^−1	1,700,000 M^−1s^−1	121,000 M^−1s^−1	8,470 M^−1s^−1	CC(C)[C@H](NC(=O)[C@H](CCC(=O)O)NC(=O)[C@H](CC(=O)O)NC(=O)OCc1ccccc1)C(=O)NN(CC(=O)O)C(=O)/C=C/C(=O)OCc1ccccc1 (relative stereo) [Cbz-Asp-Glu-Val-AAsp-CH═CH—COOCH2Ph, N^1-trans-(3-Benzyloxycarbonylpropenoyl)-N^2—(N-benzyloxycarbonylaspartylglutamylvalyl)-N^1-carboxymethylhydrazine]		
930 M⁻¹ s⁻¹	10,800 M^−1s^−1	122,000 M^−1s^−1	9,720 M^−1s^−1	1,800 M^−1s^−1	CC(C)[C@H](NC(=O)[C@H](CCC(=O)O)NC(=O)[C@H](CC(=O)O)NC(=O)OCc1ccccc1)C(=O)NN(CC(=O)O)C(=O)/C=C/C(=O)c1ccccc1 (relative stereo) [Cbz-Asp-Glu-Val-AAsp-CH═CH—COPh, N^2—(N-Benzyloxycarbonylaspartylglutamylvalyl)-N^1-trans-(3-benzoylpropenoyl)-N^1-carboxymethylhydrazine]	165 M⁻¹ s⁻¹	
15,200 M^−1s^−1	660 M⁻¹ s⁻¹	2,300 M^−1s^−1	148,400 M^−1s^−1	23,350 M^−1s^−1	CC[C@H](C)[C@H](NC(=O)OCc1ccccc1)C(=O)N[C@@H](CCC(=O)O)C(=O)N[C@H](C(=O)NN(CC(=O)O)C(=O)/C=C/C(=O)OCc1ccccc1)[C@@H](C)O (relative stereo) [Cbz-Ile-Glu-Thr-AAsp-CH═CH—COOCH2Ph, N^1-trans-(3-Benzyloxycarbonylpropenoyl)-N^2—(N-benzyloxycarbonylisoleucylglutamylthreonyl)-N^1-carboxylmethylhydrazine]	110 M⁻¹ s⁻¹	
18,900 M^−1s^−1	1,570 M^−1s^−1	4,600 M^−1s^−1	98,400 M^−1s^−1	47,600 M^−1s^−1	CC(C)C[C@H](NC(=O)OCc1ccccc1)C(=O)N[C@@H](CCC(=O)O)C(=O)N[C@H](C(=O)NN(CC(=O)O)C(=O)/C=C/C(=O)OCc1ccccc1)[C@@H](C)O (relative stereo) [Cbz-Leu-Glu-Thr-AAsp-CH═CH—COOCH2Ph, N^1-trans-(3-Benzyloxycarbonylpropenoyl)-N^2—(N-benzyloxycarbonylleucylglutamylthreonyl)-N^1-carboxymethylhydrazine]	480 M⁻¹ s⁻¹	
					CC(=O)N[C@@H](CC(=O)O)C(=O)N[C@@H](CCC(=O)O)C(=O)N[C@H](C(=O)N[C@@H](CC(=O)O)C(=O)Nc1ccc2c(C)cc(=O)oc2c1)C(C)C [Ac-DEVD-AMC, reference compound]		Km (Caspase-10; read-out: KM with caspase-10, substrate Ac-DEVD-AMC): 20.2 µM; Km (Caspase-7; read-out: KM with caspase-7, substrate Ac-DEVD-AMC): 23 µM; Km (Caspase-3; read-out: KM with caspase-3, substrate Ac-DEVD-AMC): 9.7 µM; Km (Caspase-8; read-out: KM with caspase-8, substrate Ac-DEVD-AMC): 6.79 µM; Km (Caspase-6; read-out: KM with caspase-6, substrate Ac-DEVD-AMC): 236 µM
					CC(NC(=O)OCc1ccccc1)C(=O)NC(C)C(=O)NN(CC(N)=O)C(=O)C=CC(=O)N(C)C(Cc1ccccc1)C(=O)N(C)CCc1ccccc1 (stereo not drawn) [N^2—(N-Benzyloxycarbonylalanylalanyl)-N^1-carbamoylmethyl-N^1-trans-(3-methyl-(1-methylphenethylcarbamoyl)phenylethylcarbamoylpropenoyl)hydrazine]		IC50 (S. mansoni legumain): 750 nM
					C[C@H](NC(=O)OCc1ccccc1)C(=O)N[C@@H](C)C(=O)NN(CC(N)=O)C(=O)/C=C/C(=O)N(Cc1ccccc1)Cc1cccc2ccccc12 [N^2—(N-Benzyloxycarbonylalanylalanyl)-N^1-trans-(3-benzyl-1-naphthylmethylcarbamoylpropenoyl)-N^1-carbamoylmethylhydrazine]		IC50 (S. mansoni legumain): 62 nM; kinact/KI (S. mansoni legumain; read-out: kobs/[I]): 6180 M⁻¹ s⁻¹
					CC(NC(=O)C(NC(=O)C(CC(=O)O)NC(=O)C(NC(=O)OCc1ccccc1)C(C)C)C(C)C)C(=O)NC(CC(=O)O)C(=O)Nc1ccc2c(C(F)(F)F)cc(=O)oc2c1 (stereo not shown) [Z-VDVAD-AFC, reference compound] (Cbz-VDVAD-{AFC}; configuration not given here)		Km (Caspase-2; read-out: KM with caspase-2, substrate Z-VDVAD-AFC): 80.5 µM

Compound	k2 Caspase-10 (Caspase-10)	k2 Caspase-7 (Caspase-7)	k2 Caspase-3 (Caspase-3)	k2 Caspase-8 (Caspase-8)	k2 Caspase-6 (Caspase-6)	k2 Caspase-2 (Caspase-2)	other results
CCOC(=O)/C=C\C(=O)N(CC(=O)O)NC(=O)[C@@H](NC(=O)[C@H](CCC(=O)O)NC(=O)[C@H](CC(=O)O)NC(=O)OCc1ccccc1)C(C)C (relative stereo) [Cbz-Asp-Glu-Val-AAsp-CH═CH—COOEt (cis), N^2—(N-Benzyloxycarbonylaspartylglutamylvalyl)-N^1-carboxylmethyl-N^1-cis-(3-ethoxycarbonylpropenoyl)hydrazine]	13,500 M^−1s^−1	139,000 M^−1s^−1	1,060,000 M^−1s^−1	181,000 M^−1s^−1	11,000 M^−1s^−1	26,200 ± ^ M^−1s^−1	
CCOC(=O)/C=C/C(=O)N(CC(=O)O)NC(=O)[C@@H](NC(=O)[C@H](CCC(=O)O)NC(=O)OCc1ccccc1)C(C)C (relative stereo) [Cbz-Glu-Val-AAsp-CH═CH—COOEt, N^2—(N-Benzyloxycarbonylglutamylvalyl)-N^1-carboxymethyl-N^1-trans-(3-ethoxycarbonylpropenoyl)hydrazine]	8,940 M^−1s^−1	52,400 M^−1s^−1	38,600 M^−1s^−1		3,540 M^−1s^−1	90 M⁻¹ s⁻¹	
CCOC(=O)/C=C/C(=O)N(CC(=O)O)NC(=O)[C@@H](NC(=O)[C@H](CCC(=O)O)NC(=O)[C@@H](NC(=O)OCc1ccccc1)[C@@H](C)CC)[C@@H](C)O (relative stereo) [Cbz-Ile-Glu-Thr-AAsp-CH═CH—COOEt, N^2—(N-Benzyloxycarbonylisoleucylglutamylthreonyl)-N^1-carboxymethyl-N^1-trans-(3-ethoxycarbonylpropenoyl)hydrazine]	6,900 M^−1s^−1	530 M⁻¹ s⁻¹	6,740 M^−1s^−1	56,500 M^−1s^−1	88,700 M^−1s^−1	300 M⁻¹ s⁻¹	
